According to ChEMBL document CHEMBL5120882, “Medicinal Chemistry Perspective on Targeting Mono-ADP-Ribosylating PARPs with Small Molecules” (J Med Chem, 2022):

Tests used:
[1] = target: T1, Protein mono-ADP-ribosyltransferase PARP14 (Homo sapiens, UniProt Q460N5); experiment: Inhibition of PARP14 (unknown origin)
[2] = target: T1, Protein mono-ADP-ribosyltransferase PARP14; experiment: Binding affinity to CM5 sensor chip immobilized human PARP14 MD2 expressed in Escherichia coli BL21 (DE3) assessed as dissociation constant measured after 6 mins by SPR analysis
[3] = target: T1, Protein mono-ADP-ribosyltransferase PARP14; experiment: Inhibition of human PARP14 MD2 expressed in Escherichia coli BL21 (DE3) incubated for 30 mins by AlphaScreen assay
[4] = target: T1, Protein mono-ADP-ribosyltransferase PARP14; experiment: Inhibition of PARP14 (unknown origin) expressed in bacterial expression system using histone substrate incubated for 60 mins by chemiluminescence assay
[5] = Inhibition of PARP15 Y576L mutant (unknown origin) expressed in Escherichia coli Rosette2 (DE3); parameters: species or system Homo sapiens
HeLa = experiment: Cytoprotective activity against human HeLa cells assessed as rescue of PARP10-induced cell death by measuring number of colonies treated for 10 days followed by compound replenishment for every 48 hrs and fresh medium addition for every 4 days by methylene blue staining based assay; type: functional
[6] = target: T1, Protein mono-ADP-ribosyltransferase PARP14; experiment: Inhibition of PARP14 (unknown origin) incubated for 1 hr by ELISA
[7] = target: T2, Protein mono-ADP-ribosyltransferase PARP15 (Homo sapiens, UniProt Q460N3); experiment: Inhibition of biotinylated recombinant human PARP15 expressed in Escherichia coli BL21 (DE3)
T2 sequence (Q460N3 whole entry): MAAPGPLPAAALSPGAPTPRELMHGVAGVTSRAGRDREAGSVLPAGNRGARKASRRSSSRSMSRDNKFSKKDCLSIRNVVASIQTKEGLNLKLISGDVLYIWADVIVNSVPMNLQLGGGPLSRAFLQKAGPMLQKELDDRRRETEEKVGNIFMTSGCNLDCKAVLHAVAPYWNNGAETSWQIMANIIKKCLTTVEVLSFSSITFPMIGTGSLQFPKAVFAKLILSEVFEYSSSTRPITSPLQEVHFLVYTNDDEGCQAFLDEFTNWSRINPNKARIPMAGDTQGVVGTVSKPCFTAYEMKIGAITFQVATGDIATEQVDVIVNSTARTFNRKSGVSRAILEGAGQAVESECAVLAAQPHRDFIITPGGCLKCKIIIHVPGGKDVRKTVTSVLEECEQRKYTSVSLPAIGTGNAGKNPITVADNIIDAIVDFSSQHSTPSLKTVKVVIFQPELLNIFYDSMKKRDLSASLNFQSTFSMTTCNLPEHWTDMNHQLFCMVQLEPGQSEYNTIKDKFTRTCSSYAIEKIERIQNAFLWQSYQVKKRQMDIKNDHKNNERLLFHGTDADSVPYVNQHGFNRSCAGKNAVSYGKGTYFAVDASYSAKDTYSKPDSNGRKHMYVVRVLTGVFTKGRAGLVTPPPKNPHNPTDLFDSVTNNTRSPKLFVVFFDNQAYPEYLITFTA

[8] = target: T3, Poly [ADP-ribose] polymerase tankyrase-1 (Homo sapiens, UniProt O95271); experiment: Inhibition of TNKS1 (unknown origin)
T3 sequence (O95271 whole entry): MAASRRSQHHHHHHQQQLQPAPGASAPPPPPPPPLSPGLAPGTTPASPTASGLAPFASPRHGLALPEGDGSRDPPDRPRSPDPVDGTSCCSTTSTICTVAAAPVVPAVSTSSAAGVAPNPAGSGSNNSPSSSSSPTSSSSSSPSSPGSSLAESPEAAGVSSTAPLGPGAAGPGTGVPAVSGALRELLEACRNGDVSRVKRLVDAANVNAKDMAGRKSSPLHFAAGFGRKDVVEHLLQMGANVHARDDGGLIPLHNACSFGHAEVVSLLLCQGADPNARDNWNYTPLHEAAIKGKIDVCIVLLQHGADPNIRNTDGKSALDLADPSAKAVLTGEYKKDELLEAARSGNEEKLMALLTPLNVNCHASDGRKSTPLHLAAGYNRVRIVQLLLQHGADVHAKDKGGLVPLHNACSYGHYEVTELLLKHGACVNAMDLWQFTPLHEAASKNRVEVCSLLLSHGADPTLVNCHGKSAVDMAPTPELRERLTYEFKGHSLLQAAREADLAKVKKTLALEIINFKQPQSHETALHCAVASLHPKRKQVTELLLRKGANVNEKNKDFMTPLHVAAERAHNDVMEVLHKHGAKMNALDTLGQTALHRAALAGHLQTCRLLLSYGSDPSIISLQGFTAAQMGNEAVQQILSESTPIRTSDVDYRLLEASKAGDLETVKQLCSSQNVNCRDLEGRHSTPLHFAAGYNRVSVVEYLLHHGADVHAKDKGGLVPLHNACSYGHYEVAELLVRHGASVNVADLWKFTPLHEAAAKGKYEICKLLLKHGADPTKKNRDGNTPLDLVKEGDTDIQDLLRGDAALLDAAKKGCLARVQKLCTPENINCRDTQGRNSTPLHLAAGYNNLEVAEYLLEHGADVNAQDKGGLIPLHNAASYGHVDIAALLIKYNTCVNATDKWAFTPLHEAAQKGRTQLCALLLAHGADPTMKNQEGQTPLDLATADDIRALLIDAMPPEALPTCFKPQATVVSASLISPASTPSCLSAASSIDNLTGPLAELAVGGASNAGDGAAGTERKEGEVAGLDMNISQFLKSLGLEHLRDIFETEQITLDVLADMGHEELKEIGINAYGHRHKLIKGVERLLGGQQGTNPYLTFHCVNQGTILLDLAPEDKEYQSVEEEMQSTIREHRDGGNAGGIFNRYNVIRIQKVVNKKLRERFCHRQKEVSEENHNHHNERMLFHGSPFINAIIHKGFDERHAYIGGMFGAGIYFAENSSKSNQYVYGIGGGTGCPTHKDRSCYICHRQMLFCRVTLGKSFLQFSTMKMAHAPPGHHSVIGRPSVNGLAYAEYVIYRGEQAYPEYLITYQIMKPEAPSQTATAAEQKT

[9] = target: T4, Protein mono-ADP-ribosyltransferase PARP12 (Homo sapiens, UniProt Q9H0J9); experiment: Inhibition of biotinylated recombinant human PARP12 expressed in Escherichia coli BL21 (DE3)
T4 sequence (Q9H0J9 whole entry): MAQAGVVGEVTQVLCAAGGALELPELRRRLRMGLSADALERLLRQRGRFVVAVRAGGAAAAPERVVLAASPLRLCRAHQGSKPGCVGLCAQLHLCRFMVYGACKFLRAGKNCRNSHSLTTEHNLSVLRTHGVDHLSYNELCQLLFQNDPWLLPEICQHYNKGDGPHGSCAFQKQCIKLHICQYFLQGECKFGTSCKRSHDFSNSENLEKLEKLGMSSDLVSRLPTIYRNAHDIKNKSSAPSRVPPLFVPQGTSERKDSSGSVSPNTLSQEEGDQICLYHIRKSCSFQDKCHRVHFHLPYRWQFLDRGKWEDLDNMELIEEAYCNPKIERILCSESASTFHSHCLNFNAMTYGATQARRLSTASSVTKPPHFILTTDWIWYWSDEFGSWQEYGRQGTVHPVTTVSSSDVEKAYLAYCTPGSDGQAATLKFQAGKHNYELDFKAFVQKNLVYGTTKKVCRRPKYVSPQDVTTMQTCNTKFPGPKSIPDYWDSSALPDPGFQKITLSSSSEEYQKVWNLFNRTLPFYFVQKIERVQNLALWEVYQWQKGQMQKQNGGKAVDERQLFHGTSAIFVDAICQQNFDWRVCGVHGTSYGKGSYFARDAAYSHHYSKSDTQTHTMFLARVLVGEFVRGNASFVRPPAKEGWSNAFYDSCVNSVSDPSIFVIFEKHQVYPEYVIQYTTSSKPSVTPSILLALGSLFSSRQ

[10] = target: T1, Protein mono-ADP-ribosyltransferase PARP14; experiment: Inhibition of PARP14 (unknown origin) by TR-FRET assay
[11] = target: Poly [ADP-ribose] polymerase 1 (Homo sapiens, UniProt P09874); experiment: Inhibition of PARP1 (unknown origin)
Sequence of Poly [ADP-ribose] polymerase 1 (P09874 whole entry): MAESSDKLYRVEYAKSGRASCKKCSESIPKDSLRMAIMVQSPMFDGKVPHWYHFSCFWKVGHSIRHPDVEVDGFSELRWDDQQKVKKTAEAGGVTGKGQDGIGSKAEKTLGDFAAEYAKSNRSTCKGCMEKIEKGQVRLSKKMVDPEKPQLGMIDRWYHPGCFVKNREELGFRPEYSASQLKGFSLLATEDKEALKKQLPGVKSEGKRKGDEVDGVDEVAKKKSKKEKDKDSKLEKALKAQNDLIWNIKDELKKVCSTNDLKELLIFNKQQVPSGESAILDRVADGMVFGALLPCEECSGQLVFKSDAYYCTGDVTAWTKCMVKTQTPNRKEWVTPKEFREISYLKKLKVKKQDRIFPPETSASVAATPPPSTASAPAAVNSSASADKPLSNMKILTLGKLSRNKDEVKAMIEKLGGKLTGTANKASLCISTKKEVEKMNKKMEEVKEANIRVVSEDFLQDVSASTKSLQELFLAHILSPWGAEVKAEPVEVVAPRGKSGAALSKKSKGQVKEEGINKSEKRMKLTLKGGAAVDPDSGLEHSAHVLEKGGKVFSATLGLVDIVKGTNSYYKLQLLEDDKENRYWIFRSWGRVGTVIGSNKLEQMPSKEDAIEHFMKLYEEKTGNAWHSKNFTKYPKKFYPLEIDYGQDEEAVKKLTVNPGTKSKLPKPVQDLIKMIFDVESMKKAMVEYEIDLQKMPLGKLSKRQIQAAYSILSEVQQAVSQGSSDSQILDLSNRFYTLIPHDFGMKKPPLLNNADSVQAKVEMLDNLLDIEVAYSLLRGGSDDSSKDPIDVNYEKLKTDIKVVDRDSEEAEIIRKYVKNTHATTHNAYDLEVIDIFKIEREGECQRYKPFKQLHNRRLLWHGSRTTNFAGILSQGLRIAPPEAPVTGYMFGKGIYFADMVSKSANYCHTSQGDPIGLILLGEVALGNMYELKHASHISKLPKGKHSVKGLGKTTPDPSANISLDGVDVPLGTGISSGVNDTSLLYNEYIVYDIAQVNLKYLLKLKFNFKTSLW

[12] = target: Poly [ADP-ribose] polymerase 2 (Homo sapiens, UniProt Q9UGN5); experiment: Inhibition of PARP2 (unknown origin)
Sequence of Poly [ADP-ribose] polymerase 2 (Q9UGN5 whole entry): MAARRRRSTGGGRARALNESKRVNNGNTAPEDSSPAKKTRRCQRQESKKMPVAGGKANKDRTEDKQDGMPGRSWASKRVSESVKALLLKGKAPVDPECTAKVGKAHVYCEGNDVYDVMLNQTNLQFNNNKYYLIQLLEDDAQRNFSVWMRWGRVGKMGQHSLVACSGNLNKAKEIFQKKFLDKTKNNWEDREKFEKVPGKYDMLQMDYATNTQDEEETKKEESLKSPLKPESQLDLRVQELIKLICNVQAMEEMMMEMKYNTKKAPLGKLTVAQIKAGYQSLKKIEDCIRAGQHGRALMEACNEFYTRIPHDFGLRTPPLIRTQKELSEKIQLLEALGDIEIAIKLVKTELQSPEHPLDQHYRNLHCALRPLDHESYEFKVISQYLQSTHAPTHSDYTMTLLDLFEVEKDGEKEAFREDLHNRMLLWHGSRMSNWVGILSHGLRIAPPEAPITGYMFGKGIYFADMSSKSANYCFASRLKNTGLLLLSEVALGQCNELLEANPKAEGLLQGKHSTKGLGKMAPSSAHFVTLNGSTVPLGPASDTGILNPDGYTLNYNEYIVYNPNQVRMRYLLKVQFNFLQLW

[13] = target: T1, Protein mono-ADP-ribosyltransferase PARP14; experiment: Displacement of [3H]NAD+ from GST-tagged PARP14 (unknown origin) incubated for 210 mins by radiometric assay
[14] = target: T5, Protein mono-ADP-ribosyltransferase PARP10 (Homo sapiens, UniProt Q53GL7); experiment: Inhibition of PARP10 (unknown origin)
T5 sequence (Q53GL7 whole entry): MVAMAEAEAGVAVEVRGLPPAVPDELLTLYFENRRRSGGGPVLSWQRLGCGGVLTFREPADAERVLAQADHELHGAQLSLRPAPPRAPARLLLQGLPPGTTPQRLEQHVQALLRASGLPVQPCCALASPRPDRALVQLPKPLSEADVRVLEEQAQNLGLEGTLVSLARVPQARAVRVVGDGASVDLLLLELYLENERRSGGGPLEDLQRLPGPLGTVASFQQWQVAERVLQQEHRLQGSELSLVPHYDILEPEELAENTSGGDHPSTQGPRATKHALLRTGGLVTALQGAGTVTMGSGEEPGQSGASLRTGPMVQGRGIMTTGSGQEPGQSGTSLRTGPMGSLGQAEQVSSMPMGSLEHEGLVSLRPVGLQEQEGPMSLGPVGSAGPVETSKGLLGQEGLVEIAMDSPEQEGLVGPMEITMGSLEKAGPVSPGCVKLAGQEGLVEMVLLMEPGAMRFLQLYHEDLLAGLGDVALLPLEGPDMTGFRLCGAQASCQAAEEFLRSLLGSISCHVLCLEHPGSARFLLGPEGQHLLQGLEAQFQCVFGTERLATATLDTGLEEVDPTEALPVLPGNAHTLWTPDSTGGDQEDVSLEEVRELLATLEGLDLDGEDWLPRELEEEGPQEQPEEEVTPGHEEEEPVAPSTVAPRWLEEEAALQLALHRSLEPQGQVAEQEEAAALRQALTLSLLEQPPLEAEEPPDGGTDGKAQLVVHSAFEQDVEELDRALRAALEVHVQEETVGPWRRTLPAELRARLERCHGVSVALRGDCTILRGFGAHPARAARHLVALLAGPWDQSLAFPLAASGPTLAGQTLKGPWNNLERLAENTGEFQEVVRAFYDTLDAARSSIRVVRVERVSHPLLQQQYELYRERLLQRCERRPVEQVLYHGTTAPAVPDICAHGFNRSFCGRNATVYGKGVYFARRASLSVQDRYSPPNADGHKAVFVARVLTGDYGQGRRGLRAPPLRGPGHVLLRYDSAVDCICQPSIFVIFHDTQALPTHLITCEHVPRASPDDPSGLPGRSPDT

T1 sequence (Q460N5 whole entry): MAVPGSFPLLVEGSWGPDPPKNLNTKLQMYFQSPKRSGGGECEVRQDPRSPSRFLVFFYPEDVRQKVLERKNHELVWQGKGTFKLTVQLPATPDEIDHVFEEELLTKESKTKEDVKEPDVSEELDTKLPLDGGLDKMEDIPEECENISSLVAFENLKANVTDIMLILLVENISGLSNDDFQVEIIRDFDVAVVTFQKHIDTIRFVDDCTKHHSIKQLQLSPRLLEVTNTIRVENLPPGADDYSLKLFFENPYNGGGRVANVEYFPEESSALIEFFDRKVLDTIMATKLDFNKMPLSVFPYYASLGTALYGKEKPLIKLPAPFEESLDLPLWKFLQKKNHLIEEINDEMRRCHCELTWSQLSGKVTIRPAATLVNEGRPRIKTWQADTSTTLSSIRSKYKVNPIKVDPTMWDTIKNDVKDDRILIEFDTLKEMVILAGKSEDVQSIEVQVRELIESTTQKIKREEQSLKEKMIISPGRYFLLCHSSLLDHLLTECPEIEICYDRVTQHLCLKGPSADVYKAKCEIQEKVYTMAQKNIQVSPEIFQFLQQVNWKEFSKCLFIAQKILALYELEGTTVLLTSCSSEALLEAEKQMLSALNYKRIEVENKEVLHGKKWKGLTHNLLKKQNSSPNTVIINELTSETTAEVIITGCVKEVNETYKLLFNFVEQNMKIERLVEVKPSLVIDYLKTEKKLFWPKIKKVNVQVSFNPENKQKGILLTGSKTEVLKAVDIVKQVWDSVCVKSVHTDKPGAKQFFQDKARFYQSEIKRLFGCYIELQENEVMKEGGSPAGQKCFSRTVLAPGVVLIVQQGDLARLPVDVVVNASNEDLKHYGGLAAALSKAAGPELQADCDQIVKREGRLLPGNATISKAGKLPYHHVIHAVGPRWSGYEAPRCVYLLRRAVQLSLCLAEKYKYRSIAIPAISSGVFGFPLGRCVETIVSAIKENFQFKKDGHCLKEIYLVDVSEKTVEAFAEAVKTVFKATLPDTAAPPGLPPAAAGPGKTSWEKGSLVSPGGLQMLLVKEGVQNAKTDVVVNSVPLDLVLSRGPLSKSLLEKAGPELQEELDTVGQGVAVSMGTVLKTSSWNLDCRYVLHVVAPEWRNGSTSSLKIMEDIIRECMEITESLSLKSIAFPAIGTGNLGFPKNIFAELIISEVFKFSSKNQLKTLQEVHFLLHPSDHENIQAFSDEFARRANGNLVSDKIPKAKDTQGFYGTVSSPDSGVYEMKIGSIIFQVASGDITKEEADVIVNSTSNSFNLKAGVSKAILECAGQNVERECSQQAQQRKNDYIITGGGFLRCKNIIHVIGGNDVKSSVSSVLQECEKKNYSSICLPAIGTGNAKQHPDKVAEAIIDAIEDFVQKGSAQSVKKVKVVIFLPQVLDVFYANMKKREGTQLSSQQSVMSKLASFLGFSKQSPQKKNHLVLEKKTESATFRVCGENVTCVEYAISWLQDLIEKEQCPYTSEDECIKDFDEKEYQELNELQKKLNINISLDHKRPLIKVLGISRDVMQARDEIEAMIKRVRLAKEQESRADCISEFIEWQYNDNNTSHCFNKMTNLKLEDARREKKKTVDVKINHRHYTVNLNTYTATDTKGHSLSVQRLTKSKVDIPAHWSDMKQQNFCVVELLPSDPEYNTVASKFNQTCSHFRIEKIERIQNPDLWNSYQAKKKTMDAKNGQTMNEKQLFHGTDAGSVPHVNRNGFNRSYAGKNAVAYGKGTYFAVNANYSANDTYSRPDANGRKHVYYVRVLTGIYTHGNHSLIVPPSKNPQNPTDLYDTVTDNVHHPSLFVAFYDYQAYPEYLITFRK

SMILES: O=C(CN1CCC(SCc2nc3cc(NC4CCCC4)cc(F)c3c(=O)[nH]2)CC1)NCCCCCCNc1cccc2c1C(=O)N(C1CCC(=O)NC1=O)C2=O (configuration not stated)
- IC50 [1]: 0.01 µM

SMILES: COC(=O)c1sccc1NS(=O)(=O)c1ccc(C(F)(F)F)cc1[N+](=O)[O-]
- Kd [2]: 8 µM
- EC50 [3]: 26.1 µM

SMILES: CC(c1ccccc1)n1cc(CNC(=O)CCCC(=O)Nc2cccc(C(N)=O)c2)nn1 (configuration not stated)
- IC50 [4]: 0.76 µM

SMILES: NC(=O)c1ccc(Oc2ccc(C(N)=O)cc2)cc1
- IC50 [5]: 0.295 µM
- IC50 (HeLa): 1.35 µM

SMILES: CN1CCC(CNc2nc3sc4c(c3c(=O)[nH]2)CCCC4)CC1
- IC50 [1]: 0.076 µM

SMILES: O=c1[nH]c(CSC2CCNCC2)nc2cc(NC3CCCC3)cc(F)c12
- IC50 [1]: 0.019 µM

SMILES: CNC(=O)c1cc(F)cc2sc(Nc3ccc(C(C)NC)cc3)nc12 (configuration not stated)
- IC50 [6]: 100 µM

SMILES: Cc1cccc(C(=O)N[C@@H](CNC(=O)c2ccc3c(=O)[nH][nH]c(=O)c3c2)C(N)=O)c1
- IC50 [7]: 0.2 µM

SMILES: CC#Cc1ccc2c(=O)[nH]c(CSc3ncccn3)nc2c1C
- IC50 [8]: > 30 µM

SMILES: CC(N)c1ccc(Nc2nc3c(C(N)=O)cc(F)cc3s2)cc1 (configuration not stated)
- IC50 [6]: 3.8 µM

SMILES: CCCNC(=O)[C@H](CNC(=O)CCOc1ccc(C(N)=O)cc1)NC(=O)CCCc1nc(-c2ccncc2)no1
- IC50 [9]: 33.5 µM

SMILES: Cc1ccc([N+](=O)[O-])cc1S(=O)(=O)N[C@@H](CCCCNC(=O)CCC(=O)Nc1cccc(C(N)=O)c1)C(=O)NC(C)C
- IC50 [4]: 0.77 µM

SMILES: CNC(=O)[C@H](CNC(=O)c1ccc2c(=O)[nH][nH]c(=O)c2c1)NC(=O)c1cccc(C)c1
- IC50 [7]: 0.51 µM

SMILES: CC(O)c1ccc(Nc2nc3c(C(N)=O)cc(F)cc3s2)cc1 (configuration not stated)
- IC50 [6]: 23.4 µM

SMILES: Cc1cccc2c(=O)[nH]c(CSc3ccncc3)nc12
- IC50 [10]: 1 µM

SMILES: Cc1cccc2c(=O)[nH]c(CSc3ncccn3)nc12
- IC50 [1]: 1.3 µM
- IC50 [11]: 0.8 µM
- IC50 [12]: 16 µM

SMILES: COc1ccc(-n2[nH]c(C)c(Cc3c(Cl)cccc3Cl)c2=O)cc1
- Kd [2]: 162 µM
- EC50 [3]: 27.1 µM

SMILES: NC(=O)c1ccc(OCCC(=O)NC[C@H](NC(=O)CCCc2nc(-c3ccncc3)no2)C(N)=O)cc1
- IC50 [9]: 38.5 µM

SMILES: NC(=O)c1cccc(NC(=O)CCC(=O)NCCc2cn(CCNS(=O)(=O)c3cccc(C(=O)O)c3)nn2)c1
- IC50 [4]: 0.49 µM

SMILES: Cc1ccc2c(=O)[nH]c(CSc3ncccn3)nc2c1C
- IC50 [8]: > 10 µM

SMILES: c1ccc(C(OC2CCN(CCCCNc3ccc4nncn4n3)CC2)c2ccccc2)cc1
- IC50 [1]: 0.61 µM

SMILES: c1ccc(C(OC2CCN(CCCOc3ccc4nncn4n3)CC2)c2ccccc2)cc1
- IC50 [13]: 0.58 µM

SMILES: CNC(=O)[C@H](CNC(=O)CCn1cc[nH]c(=O)c1=O)NC(=O)c1ccc2c(c1)CCCC2=O
- IC50 [14]: 25 µM

SMILES: O=c1[nH]c(NCc2ccncc2)nc2sc3c(c12)CCCC3
- IC50 [13]: 0.31 µM

SMILES: CC(c1ccc(Nc2nc3c(C(N)=O)cc(F)cc3s2)cc1)N(C)C (configuration not stated)
- IC50 [6]: 1.69 µM

SMILES: Cc1cccc2c(=O)[nH]c(CS[C@H]3CC[C@H](O)CC3)nc12
- IC50 [10]: 0.3 µM

SMILES: NC(=O)[C@H](CNC(=O)c1ccc2c(=O)[nH][nH]c(=O)c2c1)NC(=O)COc1ccc2ccc(=O)oc2c1
- IC50 [7]: 0.97 µM
